From PubChem BioAssay AID1963861 (Molecular Pharmacology Branch, DTP, NCI, 2024)

System: 885724-159-R-J1-PDC KRAS PDC multicell spheroid viability
Test: Anticancer human tumor 885724-159-R-J1-PDC patient-derived pancreatic adenocarcinoma cell line growth inhibition [KRAS2]
Conditions: for IC50: curve of first compound; for viability, T/C: stronger effect = lower value; active = viability on the fitted dose curve at most 10% of control; inactive = the rest
Description: Multicellular complex tumor spheroid response to RAS pathway inhibitors in combination with a targeted agents in patient-derived cell lines with oncogenic KRAS variants from multiple cancer types
A high-throughput screen of multi-cell type tumor spheroids was designed to identify active combinations of targeted small molecules and KRAS pathway inhibitors. Complex spheroids include a stromal component modeled by human endothelial cells (HUVEC) and fibroblasts modeled by human mesenchymal stem cells (MSCs). The concentration ranges selected for each drug and investigational agent were based upon clinically achievable concentrations if the clinical Cmax of the agent was known.
Compounds. The drugs and investigational agents: BI-3406 (NSC825286), BAY-293 (NSC824723), batoprotafib (TNO155; NSC825523), sotorasib (AMG 510; NSC818433), MRTX1257 (NSC819558), elimusertib (BAY 1895344; NSC800525), molibresib (GSK525762; NSC774829), temuterkib (LY3214996; NSC803410), venetoclax (NSC766270), alisertib (NSC759677), olaparib (NSC753686), talazoparib (NSC767125), erdafitinib (NSC781556), ipatasertib (NSC767898), cabozantinib (NSC761068), nintedanib (NSC756659), abemaciclib (NSC768073), docetaxel (NSC628503), trametinib (NSC758246), and sapanisertib (NSC764658) were obtained from the National Cancer Institute (NCI) Developmental Therapeutics Program Chemical Repository. The FDA-approved anticancer drug set is available from the Developmental Therapeutics Program. […] The stock solutions were prepared in dimethyl sulfoxide (DMSO, Sigma-Aldrich, St. Louis, MO, cat. D2650) at 800-fold the tested concentration and stored at -70 degrees C prior to their use. All drugs and investigational agents were tested over a range starting from a high concentration at or near the clinical Cmax and decreasing in half-log increments. If the clinical Cmax for an agent had not been determined, the highest concentration tested was 10 microM.
Cell Culture. All cells were maintained in an incubator at 37 degrees C and 5% CO2 with 95% humidity. The PDC lines were cultured according to standard operating procedures established by the NCI PDMR (https://pdmr.cancer.gov/sops/default.htm). Briefly, all PDCs were thawed and cultured in Matrigel-coated flasks prepared with a working solution of 1X Ham's F-12 nutrient mix, without supplementation (Invitrogen, Waltham, MA, cat. 11765054), 100 U/mL penicillin-streptomycin (Invitrogen, cat. 15140122), and 2.5% Matrigel (Corning Inc., Corning, NY, cat. 354248) for the first three passages. All PDCs were cultured in complete DMEM/F-12 media containing advanced DMEM/F-12 (Invitrogen, cat. 12634028), 4.9% defined fetal bovine serum, heat inactivated (HyClone Laboratories Inc., Logan, UT, cat. SH30070.03HI), 389 ng/mL hydrocortisone (Sigma-Aldrich, cat. H4001), 9.7 ng/mL human EGF recombinant protein (Invitrogen, cat. PHG0313), 23.4 microg/mL adenine (Sigma-Aldrich, cat. A2786), 97.3 U/mL penicillin-streptomycin (Invitrogen, cat. 15140122), 1.9 mM L-glutamine (Invitrogen, cat. 25030081), and 9.7 microM Y-27632 dihydrochloride (Tocris Bioscience, Bristol, United Kingdom, cat. 1254). The PDCs were cultured in complete DMEM/F12 media without 9.7 microM Y-27632 dihydrochloride for at least two passages prior to the screen. The established cell line HOP-62 was cultured in RPMI 1640 medium, HEPES (Invitrogen, cat. 22400105) with 10% defined fetal bovine serum (HyClone Laboratories Inc., cat. SH30070.03) and 2 mM L-glutamine (Invitrogen, cat. 25030081). The pooled donor HUVEC were cultured in endothelial cell growth medium 2 (PromoCell, Heidelberg, Germany, cat. C-22011) and the hMSC were cultured in mesenchymal stem cell growth medium 2 (PromoCell, cat. C-28009). For all experiments, HUVEC and hMSC were used at passages </=5, while the malignant cell lines were used at passages </=15. […]

[1] = second compound 0.1 µM, first compound 0.0316 µM
[2] = second compound 0.316 µM, first compound 0.0316 µM
[3] = second compound 1 µM, first compound 0.0316 µM
[4] = second compound 3.16 µM, first compound 0.0316 µM
[5] = second compound 10 µM, first compound 0.0316 µM
[6] = second compound 0.1 µM, first compound 0.1 µM
[7] = second compound 0.1 µM, first compound 0.316 µM
[8] = second compound 0.1 µM, first compound 1 µM
[9] = second compound 0.1 µM, first compound 3.16 µM
[10] = second compound 0.1 µM, first compound 10 µM
[11] = second compound 0.316 µM, first compound 0.1 µM
[12] = second compound 0.316 µM, first compound 0.316 µM
[13] = second compound 0.316 µM, first compound 1 µM
[14] = second compound 0.316 µM, first compound 3.16 µM
[15] = second compound 0.316 µM, first compound 10 µM
[16] = second compound 1 µM, first compound 0.1 µM
[17] = second compound 1 µM, first compound 0.316 µM
[18] = second compound 1 µM, first compound 1 µM
[19] = second compound 1 µM, first compound 3.16 µM
[20] = second compound 1 µM, first compound 10 µM
[21] = second compound 3.16 µM, first compound 0.1 µM
[22] = second compound 3.16 µM, first compound 0.316 µM
[23] = second compound 3.16 µM, first compound 1 µM
[24] = second compound 3.16 µM, first compound 3.16 µM
[25] = second compound 3.16 µM, first compound 10 µM
[26] = second compound 10 µM, first compound 0.1 µM
[27] = second compound 10 µM, first compound 0.316 µM
[28] = second compound 10 µM, first compound 1 µM
[29] = second compound 10 µM, first compound 3.16 µM
[30] = second compound 10 µM, first compound 10 µM
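Note: spheroids exposed to agents for 7 days before readout.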

CC(=O)Nc1cccc(-n2c(=O)n(C3CC3)c(=O)c3c(Nc4ccc(I)cc4F)n(C)c(=O)c(C)c32)c1 + C=CC(=O)N1CCN(c2nc(=O)n(-c3c(C)ccnc3C(C)C)c3nc(-c4c(O)cccc4F)c(F)cc23)C(C)C1
0.002 µM: IC50 (second compound 1 µM)
0.00157 µM: IC50 (second compound 0.316 µM)
0.00174 µM: IC50 (second compound 0.1 µM)
0.00136 µM: IC50 (second compound 3.16 µM)
inactive: viability, T/C (second compound 0.1 µM, first compound 0.0001 µM) 102% | viability, T/C (second compound 0.1 µM, first compound 0.000316 µM) 81.2% | viability, T/C (second compound 0.1 µM, first compound 0.001 µM) 55.9% | viability, T/C (second compound 0.1 µM, first compound 0.00316 µM) 42.2% | viability, T/C (second compound 0.1 µM, first compound 0.01 µM) 30% | viability, T/C [1] 21.3% | viability, T/C (second compound 0.316 µM, first compound 0.0001 µM) 114% | viability, T/C (second compound 0.316 µM, first compound 0.000316 µM) 83% | viability, T/C (second compound 0.316 µM, first compound 0.001 µM) 54.6% | viability, T/C (second compound 0.316 µM, first compound 0.00316 µM) 40.1% | viability, T/C (second compound 0.316 µM, first compound 0.01 µM) 30.6% | viability, T/C [2] 21.4% | viability, T/C (second compound 1 µM, first compound 0.0001 µM) 92.5% | viability, T/C (second compound 1 µM, first compound 0.000316 µM) 84.3% | viability, T/C (second compound 1 µM, first compound 0.001 µM) 61.2% | viability, T/C (second compound 1 µM, first compound 0.00316 µM) 41.7% | viability, T/C (second compound 1 µM, first compound 0.01 µM) 31.9% | viability, T/C [3] 23.8% | viability, T/C (second compound 3.16 µM, first compound 0.0001 µM) 84.6% | viability, T/C (second compound 3.16 µM, first compound 0.000316 µM) 81.5% | viability, T/C (second compound 3.16 µM, first compound 0.001 µM) 52.4% | viability, T/C (second compound 3.16 µM, first compound 0.00316 µM) 38.7% | viability, T/C (second compound 3.16 µM, first compound 0.01 µM) 30.1% | viability, T/C [4] 26.6% | viability, T/C (second compound 10 µM, first compound 0.0001 µM) 61.6% | viability, T/C (second compound 10 µM, first compound 0.000316 µM) 51.3% | viability, T/C (second compound 10 µM, first compound 0.001 µM) 29.3% | viability, T/C (second compound 10 µM, first compound 0.00316 µM) 26.4% | viability, T/C (second compound 10 µM, first compound 0.01 µM) 23.2% | viability, T/C [5] 18.6%
0.00033 µM: IC50 (second compound 10 µM)

COC(=O)c1ccc2c(C(=Nc3ccc(N(C)C(=O)CN4CCN(C)CC4)cc3)c3ccccc3)c(O)[nH]c2c1 + C=CC(=O)N1CCN(c2nc(=O)n(-c3c(C)ccnc3C(C)C)c3nc(-c4c(O)cccc4F)c(F)cc23)C(C)C1
3.15 µM: IC50 (second compound 0.1 µM)
2.11 µM: IC50 (second compound 3.16 µM)
active: viability, T/C [10] 1.26% | viability, T/C [15] 0.55% | viability, T/C [20] 0.74% | viability, T/C [25] 0.65% | viability, T/C [30] 0.39%
1.54 µM: IC50 (second compound 10 µM)
2.27 µM: IC50 (second compound 0.316 µM)
inactive: viability, T/C [1] 109% | viability, T/C [6] 111% | viability, T/C [7] 102% | viability, T/C [8] 103% | viability, T/C [9] 49.8% | viability, T/C [2] 105% | viability, T/C [11] 109% | viability, T/C [12] 102% | viability, T/C [13] 104% | viability, T/C [14] 28.1% | viability, T/C [3] 113% | viability, T/C [16] 111% | viability, T/C [17] 110% | viability, T/C [18] 98.6% | viability, T/C [19] 21.9% | viability, T/C [4] 106% | viability, T/C [21] 110% | viability, T/C [22] 105% | viability, T/C [23] 95.7% | viability, T/C [24] 25.1% | viability, T/C [5] 89.7% | viability, T/C [26] 70.4% | viability, T/C [27] 79.1% | viability, T/C [28] 69.9% | viability, T/C [29] 17.2%
2.07 µM: IC50 (second compound 1 µM)

COc1cc(Nc2ncc3c(n2)-c2ccc(Cl)cc2C(c2c(F)cccc2OC)=NC3)ccc1C(=O)O + C=CC(=O)N1CCN(c2nc(=O)n(-c3c(C)ccnc3C(C)C)c3nc(-c4c(O)cccc4F)c(F)cc23)C(C)C1
inactive: viability, T/C [1] 99.7% | viability, T/C [6] 100% | viability, T/C [7] 95.9% | viability, T/C [8] 92.7% | viability, T/C [9] 100% | viability, T/C [10] 107% | viability, T/C [2] 94.5% | viability, T/C [11] 92.1% | viability, T/C [12] 92.2% | viability, T/C [13] 96.8% | viability, T/C [14] 98.7% | viability, T/C [15] 106% | viability, T/C [3] 97.8% | viability, T/C [16] 93.5% | viability, T/C [17] 92.2% | viability, T/C [18] 93.9% | viability, T/C [19] 85.6% | viability, T/C [20] 99.7% | viability, T/C [4] 80.9% | viability, T/C [21] 85.5% | viability, T/C [22] 86.1% | viability, T/C [23] 90.6% | viability, T/C [24] 90.9% | viability, T/C [25] 87.4% | viability, T/C [5] 65.4% | viability, T/C [26] 67.4% | viability, T/C [27] 63.6% | viability, T/C [28] 58.2% | viability, T/C [29] 56.5% | viability, T/C [30] 49.8%
> 10 µM: IC50 (second compound 0.1 µM) | IC50 (second compound 0.316 µM) | IC50 (second compound 1 µM) | IC50 (second compound 3.16 µM) | IC50 (second compound 10 µM)
